# Source: US12404318B2, “Combination HBV therapy” (priority 2018, dated 2025)
# Legend:
# [1] = tested on: HBV (rAAV8-1.3HBV strain ayw, D type); test: Combination therapy study in AAV-HBV mice (Example 1): serum HBsAg and HBV DNA; type: in vivo, C57BL/6 mice; settings: AAV/HBV-infected C57BL/6 mice, HBV02 3 mg/kg, HBC34 antibody (HBC34-v7-mu-IgG2a) 15 mg/kg, alone or combined
# Procedure: The mice (C57BL/6 strain) were inoculated with the following amount of rAAV8-1.3HBV strain ayw, D type: 1.0×10^11 viral genomes per mouse in 200 μl volume via tail veins injection. Four weeks after viral inoculation, treatment with test compounds was initiated.
# Entecavir was administered orally once per day.
# HBV genotype C = test: Serum clearance of HBsAg and viral entry inhibition in PXB-Mouse model (Example 3); type: in vivo, uPA/SCID mice with transplanted primary human hepatocytes; settings: HBC34 antibody (HBC34-v35-mu-IgG2a) 15 mg/kg, not in combination with the siRNA
# Source text: An immune-deficient mouse having transplanted human hepatocytes was used to test the effectiveness of a combination therapy with an HBV-specific siRNA and an anti-HBV antibody in clearing HBsAg.
# Primary human hepatocytes were transplanted into SCID mice for which mouse hepatocytes had previously been destroyed enzamatically. The mice were T- and B-cell deficient. […] Mice were inoculated via tail vein injection with HBV genotype C at 1.0×10^7 viral genomes per mouse. Treatments began eight weeks post-infection.
# HBV-infected mice (n=4 per treatment group) were administered one of seven different treatments: (1) PBS only; (2-4) an anti-HBV antibody (a fully murinized HBC34v35 antibody, HBC34-v35-mu-IgG2a), at one of three doses, administered intraperitoneally twice per week during weeks two and three; or (5-7) an HBV-specific siRNA (HBV02, having an antisense strand of SEQ ID NO:8; see description in Example 1) administered subcutaneously once at the beginning of the study, and the fully murinized HBC34v35, at one of three antibody doses, administered intraperitoneally twice per week during weeks two and three (see Table 7). Mice were sacrificed at week 6.
# Serum samples were collected periodically throughout the study, and viral load, HBsAg, and free HBC34 antibody were measured.
# HBsAg = HBsAg (Hepatitis B virus genotype D subtype ayw, UniProt P03138); test: Activity measured diagnostically with an immunoassay; type: binding, HBV
# antigenic loop of HBsAg = test: Binding to HBsAg; design: species or system HBV
# HBV = HBV neutralization; type: cell-based; settings: human antibodies against HBsAg
# Procedure: To study and quantitate virus infectivity (or “neutralization”) in the laboratory the person skilled in the art knows various standard “neutralization assays.” For a neutralization assay, animal viruses are typically propagated in cells and/or cell lines. In the context of the present disclosure, for a neutralization assay, cultured cells may be incubated with a fixed amount of HBV in the presence (or absence) of the antibody to be tested. As a readout, the levels of hepatitis B surface antigen (HBsAg) or hepatitis B e antigen (HBeAg) secreted into the cell culture supernatant may be used and/or HBcAg staining may be assessed. In one embodiment of a HBV neutralization assay, cultured cells, for example HepaRG cells, in particular differentiated HepaRG cells, are incubated with a fixed amount of HBV in the presence or absence of the antibody to be tested, for example for 16 hours at 37° C. The incubation may be performed in a medium (e.g., supplemented with 4% PEG 8000). After incubation, cells may be washed and further cultivated. To measure virus infectivity, the levels of hepatitis B surface antigen (HBsAg) and hepatitis B e antigen (HBeAg) secreted into the culture supernatant, e.g., from day 7 to day 11 post-infection, may be determined by enzyme-linked immunosorbent assay (ELISA). Additionally, HBcAg staining may be assessed in an immunofluorescence assay.
Molecule,"Reduction of serum HBV DNA (viral load) relative to the saline control ([1]; FIGS. 2A, 2B)","Reduction of serum HBsAg relative to the saline control ([1]; FIGS. 3A, 3B) [log10]","Serum HBV DNA concentration, antibody monotherapy (HBV genotype C; FIG. 9)","Serum HBsAg concentration, antibody monotherapy (HBV genotype C; FIG. 10)",Activity as measured diagnostically with an immunoassay (HBsAg) [IU/mg],Affinity of binding to the antigenic loop of HBsAg (antigenic loop of HBsAg),HBV genotypes and mutants recognized (antigenic loop of HBsAg),Stoichiometry of binding to spherical SVPs (antigenic loop of HBsAg; spherical subviral particles),Neutralizing activity (HBV)
"HBC34: human monoclonal antibody against HBsAg antigenic loop; VH SEQ ID NO:53, VL SEQ ID NO:55",no effect,< 1,lower,lower,5000,high affinity (in the pM range),all 10 HBV genotypes and 18 mutants,low stoichiometry,high neutralizing activity
"HBC24: human antibody against HBsAg, VH SEQ ID NO:75, VL SEQ ID NO:76; murinized heavy and light chains SEQ ID NOs:103 and 104 (antibody, V domains shown, Synthetic sequence HBC24 VH; Synthetic sequence HBC24 VL) VH: EVQLLESGGGLVQPGGSLRLSCAASGSTFTKYAMSWVRQAPGKGLEWVASISGSVPGFGIDTYYADSVKGRFTISRDTSKNTLYLQMNSLRAEDTALYYCAKDVGVIGSYYYYAMDVWGQGTAVTVSS VL: EIVLTQSPGTLSLSPGERATLSCRASQGLSSSYLAWYQQKPGQAPRLLIYSASTRATGIPDRFSGSGSGTDFTLTISRLEPEDFAVYYCQQYAYSPRWTFGQGTKVEIK",–,–,–,–,–,–,–,–,high neutralizing activity
